One test has as its target T1, mTOR (Homo sapiens, UniProt P42345).
T1 construct: purchased Invitrogen Corporation (Carlsbad/Calif., USA) PV4753
The test is described as follows: Biochemical assay for m-TOR by TR-FRET. The settings on record: read-out: EPK_mTOR/IC50. In outline: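 mTOR (0.5 nM) phosphorylates GFP-4EBP1 (400 nM) with 8 μM ATP at rt in 50 mM HEPES pH 7.5, 10 mM MnCl2, 50 mM NaCl, 1 mM EGTA, 1 mM DTT; compounds 0.003–10 μM final. EDTA stop with Tb-anti-p4EBP1[pT46] antibody (0.5 nM); TR-FRET read after 15 min against no-enzyme and vehicle controls.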
Background: In TR-FRET formats the signal depends on donor and acceptor labels being close together.

The subject of test [1] is PKB Ser473 phosphorylation in Rat1-myr-HA-p110 beta cells. The test is described as follows: Reverse protein array, PKB Ser473 phosphorylation in Rat1-myr-HA-p110 beta cells. It counts as cell-based. The settings on record: Rattus norvegicus, 0.5 h, 30 minutes compound incubation, read-out: p-PKB/IC50_beta.

T1 sequence (P42345 1360-2549 limits assumed): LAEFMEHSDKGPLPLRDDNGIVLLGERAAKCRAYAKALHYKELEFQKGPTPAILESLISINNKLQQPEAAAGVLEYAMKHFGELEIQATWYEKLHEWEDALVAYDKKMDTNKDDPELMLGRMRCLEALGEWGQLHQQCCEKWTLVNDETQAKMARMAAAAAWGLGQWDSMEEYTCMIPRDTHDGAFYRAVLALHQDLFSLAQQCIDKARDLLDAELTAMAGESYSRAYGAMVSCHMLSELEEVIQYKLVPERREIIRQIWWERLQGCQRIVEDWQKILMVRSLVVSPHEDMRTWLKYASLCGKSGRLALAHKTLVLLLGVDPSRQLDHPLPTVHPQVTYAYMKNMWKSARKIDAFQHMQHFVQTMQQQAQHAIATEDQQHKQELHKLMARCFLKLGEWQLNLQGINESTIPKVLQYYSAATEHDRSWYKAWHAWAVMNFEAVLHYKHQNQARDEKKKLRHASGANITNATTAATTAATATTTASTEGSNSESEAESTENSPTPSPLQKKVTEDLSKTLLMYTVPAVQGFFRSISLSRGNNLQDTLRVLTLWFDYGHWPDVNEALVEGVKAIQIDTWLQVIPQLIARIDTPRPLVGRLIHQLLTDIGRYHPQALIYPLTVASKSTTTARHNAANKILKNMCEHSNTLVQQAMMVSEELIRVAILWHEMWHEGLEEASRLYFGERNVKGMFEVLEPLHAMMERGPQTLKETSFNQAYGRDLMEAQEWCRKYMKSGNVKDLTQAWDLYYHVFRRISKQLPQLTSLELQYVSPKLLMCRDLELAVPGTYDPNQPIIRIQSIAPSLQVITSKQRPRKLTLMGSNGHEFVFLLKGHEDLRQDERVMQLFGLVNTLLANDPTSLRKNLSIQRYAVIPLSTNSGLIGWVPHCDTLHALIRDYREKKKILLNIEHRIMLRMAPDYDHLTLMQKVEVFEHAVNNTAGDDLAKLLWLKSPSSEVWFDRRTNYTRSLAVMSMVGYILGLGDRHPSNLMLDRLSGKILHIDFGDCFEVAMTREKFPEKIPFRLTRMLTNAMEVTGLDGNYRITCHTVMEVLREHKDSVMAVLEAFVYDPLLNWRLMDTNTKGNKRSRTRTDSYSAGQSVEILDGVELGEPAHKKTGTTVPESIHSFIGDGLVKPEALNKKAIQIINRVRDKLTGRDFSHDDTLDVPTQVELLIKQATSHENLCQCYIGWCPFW

Regarding `COc1cc(-c2ccc3ncc4c(c3c2)n(-c2ccc(N3CCCC3)nc2C)c(=O)n4C)cnc1CO` [Example 25.4, 8-(6-Hydroxymethyl-5-methoxy-pyridin-3-yl)-3-methyl-1-(2-methyl-6-pyrrolidin-1-yl-pyridin-3-yl)-1,3-dihydro-imidazo[4,5-c]quinolin-2-one], the IC50 amounted to 655 nM on mTOR and 17.6 nM in test [1].

As for `CCNc1cc(-c2ccc3ncc4c(c3c2)n(-c2ccc(N3CCCC3)nc2C)c(=O)n4C)cnc1CO` [Example 25.5, 8-(5-Ethylamino-6-hydroxymethyl-pyridin-3-yl)-3-methyl-1-(2-methyl-6-pyrrolidin-1-yl-pyridin-3-yl)-1,3-dihydro-imidazo[4,5-c]quinolin-2-one], the IC50 on mTOR was 22 nM; in test [1], < 4.57 nM.

For `CCNc1cc(-c2ccc3ncc4c(c3c2)n(-c2ccc(N(C)CCO)nc2C)c(=O)n4C)cnc1CO` [Example 26.3, 8-(5-Ethylamino-6-hydroxymethyl-pyridin-3-yl)-1-{6-[(2-hydroxy-ethyl)-methyl-amino]-2-methyl-pyridin-3-yl}-3-methyl-1,3-dihydro-imidazo[4,5-c]quinolin-2-one], the IC50 at mTOR came out at 9 nM; in test [1], 6.9 nM.

Consider `Cc1nc(N2CCC(O)C2)ccc1-n1c(=O)n(C)c2cnc3ccc(-c4cnc(N)c(C(F)(F)F)c4)cc3c21` (stereo not shown) [Example 27.3, 8-(6-Amino-5-trifluoromethyl-pyridin-3-yl)-1-[6-(3-hydroxy-pyrrolidin-1-yl)-2-methyl-pyridin-3-yl]-3-methyl-1,3-dihydro-imidazo[4,5-c]quinolin-2-one], for which the figures for the IC50 (at mTOR; in test [1]) were 7 nM and 8.6 nM, respectively.

For `CCOc1ccc(-c2ccc3ncc4c(c3c2)n(-c2ccc(N3CCC(O)C3)nc2C)c(=O)n4C)cn1` (stereo not shown) [Example 27.4, 8-(6-Ethoxy-pyridin-3-yl)-1-[6-(3-hydroxy-pyrrolidin-1-yl)-2-methyl-pyridin-3-yl]-3-methyl-1,3-dihydro-imidazo[4,5-c]quinolin-2-one], the IC50 at mTOR was found to be 23 nM; in test [1] it was 20.4 nM.

As to `Cc1nc(N2CCC(O)C2)ccc1-n1c(=O)n(C)c2cnc3ccc(-c4cncc(C(C)(C)O)c4)cc3c21` (stereo not shown) [Example 27.5, 8-[5-(1-Hydroxy-1-methyl-ethyl)-pyridin-3-yl]-1-[6-(3-hydroxy-pyrrolidin-1-yl)-2-methyl-pyridin-3-yl]-3-methyl-1,3-dihydro-imidazo[4,5-c]quinolin-2-one], the IC50 is 15 nM at mTOR and 197 nM in test [1].

With `CNc1ncc(-c2ccc3ncc4c(c3c2)n(-c2ccc(N3CCC(OC)C3)nc2C)c(=O)n4C)cn1` (stereo not shown) [Example 28.2, 1-[6-(3-Methoxy-pyrrolidin-1-yl)-2-methyl-pyridin-3-yl]-3-methyl-8-(2-methylamino-pyrimidin-5-yl)-1,3-dihydro-imidazo[4,5-c]quinolin-2-one], the IC50 at mTOR turned out to be 8 nM; in test [1], 7.4 nM.

`COc1cc(-c2ccc3ncc4c(c3c2)n(-c2ccc(N3CCC(OC)C3)nc2C)c(=O)n4C)cnc1CO` (stereo not shown) [Example 28.3, 8-(6-Hydroxymethyl-5-methoxy-pyridin-3-yl)-1-[6-(3-methoxy-pyrrolidin-1-yl)-2-methyl-pyridin-3-yl]-3-methyl-1,3-dihydro-imidazo[4,5-c]quinolin-2-one]: the IC50 at mTOR was 172 nM; in test [1], 44.5 nM.

Consider `Cc1nc(N2CC(O)C2)ccc1-n1c(=O)n(C)c2cnc3ccc(-c4cncc(C(C)(C)O)c4)cc3c21` [Example 29.1, 1-[6-(3-Hydroxy-azetidin-1-yl)-2-methyl-pyridin-3-yl]-8-[5-(1-hydroxy-1-methyl-ethyl)-pyridin-3-yl]-3-methyl-1,3-dihydro-imidazo[4,5-c]quinolin-2-one], for which the results for the IC50 (on mTOR; in test [1]) were 5 nM and 1100 nM, respectively.

With `COc1cc(-c2ccc3ncc4c(c3c2)n(-c2ccc(N)nc2C)c(=O)n4C)cnc1CO` [Example 30.1, 1-(6-Amino-2-methyl-pyridin-3-yl)-8-(6-hydroxymethyl-5-methoxy-pyridin-3-yl)-3-methyl-1,3-dihydro-imidazo[4,5-c]quinolin-2-one], the figures for the IC50 (at mTOR; in test [1]) were 118 nM and 237 nM, respectively.

As to `CNc1ncc(-c2ccc3ncc4c(c3c2)n(-c2ccc(N3CC[C@H](O)C3)nc2C)c(=O)n4C)cc1Cl` [Example 32.4, 8-(5-Chloro-6-methylamino-pyridin-3-yl)-1-[6-((S)-3-hydroxy-pyrrolidin-1-yl)-2-methyl-pyridin-3-yl]-3-methyl-1,3-dihydro-imidazo[4,5-c]quinolin-2-one], the IC50 amounted to 7 nM at mTOR and 13 nM in test [1].

For the compound `COc1cc(-c2ccc3ncc4c(c3c2)n(-c2ccc(N3CC[C@H](O)C3)nc2C)c(=O)n4C)cnc1CO` [Example 32.7, 8-(6-Hydroxymethyl-5-methoxy-pyridin-3-yl)-1-[6-((S)-3-hydroxy-pyrrolidin-1-yl)-2-methyl-pyridin-3-yl]-3-methyl-1,3-dihydro-imidazo[4,5-c]quinolin-2-one], the IC50 stood at 50 nM at mTOR and 200 nM in test [1].

Consider `CNc1ncc(-c2ccc3ncc4c(c3c2)n(-c2ccc(N3CC[C@@H](O)C3)nc2C)c(=O)n4C)cn1` [Example 34.1, 1-[6-((R)-3-Hydroxy-pyrrolidin-1-yl)-2-methyl-pyridin-3-yl]-3-methyl-8-(2-methylamino-pyrimidin-5-yl)-1,3-dihydro-imidazo[4,5-c]quinolin-2-one], for which the IC50 at mTOR turned out to be 28 nM; in test [1] it was 20 nM.

Take `CCNc1cc(-c2ccc3ncc4c(c3c2)n(-c2ccc(N3CC(F)(F)C(F)(F)C3)nc2C)c(=O)n4C)cnc1CO` [Example 35.2, 8-(5-Ethylamino-6-hydroxymethyl-pyridin-3-yl)-3-methyl-1-[2-methyl-6-(3,3,4,4-tetrafluoro-pyrrolidin-1-yl)-pyridin-3-yl]-1,3-dihydro-imidazo[4,5-c]quinolin-2-one]: the results for the IC50 (at mTOR; in test [1]) were 45 nM and 5.27 nM, respectively.

The record behind these values is patent publication US20100311714A1, “1H-IMIDAZO[4,5-c]QUINOLINONE COMPOUNDS” (priority 2009, published 2010).
